Measurements taken from patent US4438029A, “Synthetic peptides” (Research Corporation, priority 1979, dated 1984).
Ends that are not written are not given here.

system: guinea pig ileum strips; assay: Contraction of guinea pig ileum strips in Tyrode's solution; type: cell-based; settings: Table I; per 10 ml of solution; full contraction; guinea pig ileum strips with Tyrode's solution
Description: ^b Amount of peptide per 10 ml of solution to contract fully guinea
pig ileum strips with Tyrode's solution.
^b Amount of peptide per 10 ml of Tyrode's solution to fully contract
a guinea pig ileum strip.

Substance	Activity (amount of peptide per 10 ml of solution to contract fully guinea pig ileum strips) [nmol]
Ac-ASHLGLAR [No. 6, CH3 CO--Ala-Ser-His-Leu-Gly-Leu-Ala-Arg]	8 to 12
ASHLGLAR [No. 5, L-Alanyl-L-seryl-L-histidyl-L-leucyl-glycyl-L-leucyl-L-alanyl-L-arginine]	5 to 8

same assay, conditions: Table II; per 10 ml of Tyrode's solution; full contraction; guinea pig ileum strip

Substance	Ileum Activity (amount of peptide per 10 ml of Tyrode's solution to fully contract a guinea pig ileum strip) [nmol]
Ac-HLGLAR [CH3 CO--His-Leu-Gly-Leu-Ala-Arg]	8 to 17
Ac-LGLAR [CH3 CO--Leu-Gly-Leu-Ala-Arg]	36 to 45
Ac-ALGLAR [CH3 CO--Ala-Leu-Gly-Leu-Ala-Arg]	19 to 38
Ac-AAALGLAR [CH3 CO--Ala-Ala-Ala-Leu-Gly-Leu-Ala-Arg]	7 to 13
